Where “and” joins values, the source holds several entries; their conditions need not be identical. Equal entries are not always repeated. Inconclusive results and toxic doses are left out. Rule as the data show it: active = T/C of 150% or more; inactive = T/C below 125%. Square brackets hold non-standard residues; d marks the D form. Peptide text beside a SMILES is read from it. * marks the point of attachment. ξ: configuration not given here. Cbz = O=C(OCc1ccccc1)*; ξM = CSCCC(N)C(=O)O
Tested on: L1210 leukemia ip in BDF1 mice, survival T/C
Assay: NCI In Vivo Anticancer Drug Screen. Data for tumor model L1210 Leukemia (intraperitoneal) in B6D2F1 (BDF1) mice
Details: endpoint: mean survival time, higher = longer survival
Procedure, shortened: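 Ratio derived from survival: compound-dosed mice over vehicle-dosed mice, all bearing a transplantable tumor.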

[1] = dose: 100.0 mg/kg/injection, schedule: Q04DX003 (ip), vehicle: saline
[2] = dose: 200.0 mg/kg/injection, schedule: Q04DX003 (ip), vehicle: saline
[3] = dose: 400.0 mg/kg/injection, schedule: Q04DX003 (ip), vehicle: saline
[4] = dose: 100.0 mg/kg/injection, schedule: Q01DX009 (ip), vehicle: Klucel (hydroxypropylcellulose) (HPC)
[5] = dose: 100.0 mg/kg/injection, schedule: Q04DX003 (ip), vehicle: Klucel (hydroxypropylcellulose) (HPC)
[6] = dose: 200.0 mg/kg/injection, schedule: Q01DX009 (ip), vehicle: Klucel (hydroxypropylcellulose) (HPC)
[7] = dose: 200.0 mg/kg/injection, schedule: Q04DX003 (ip), vehicle: Klucel (hydroxypropylcellulose) (HPC)
[8] = dose: 400.0 mg/kg/injection, schedule: Q01DX009 (ip), vehicle: Klucel (hydroxypropylcellulose) (HPC)
[9] = dose: 400.0 mg/kg/injection, schedule: Q04DX003 (ip), vehicle: Klucel (hydroxypropylcellulose) (HPC)
[10] = dose: 100.0 mg/kg/injection, schedule: Q04DX003 (ip), vehicle: saline with Tween-80
[11] = dose: 200.0 mg/kg/injection, schedule: Q04DX003 (ip), vehicle: saline with Tween-80
[12] = dose: 400.0 mg/kg/injection, schedule: Q04DX003 (ip), vehicle: saline with Tween-80
[13] = dose: 100.0 mg/kg/injection, schedule: Q01DX001 (ip), vehicle: saline
[14] = dose: 200.0 mg/kg/injection, schedule: Q01DX001 (ip), vehicle: saline
[15] = dose: 400.0 mg/kg/injection, schedule: Q01DX001 (ip), vehicle: saline
[16] = dose: 100.0 mg/kg/injection, schedule: Q01DX009 (ip), vehicle: saline with Tween-80

Measured: T/C

O=C1c2ccccc2C(=O)c2c(O)c(N3CCCCC3)cc(O)c21
inactive: dose: 100.0 mg/kg/injection, schedule: Q01DX009 (ip), vehicle: saline 91 % of control | [1] 88 % of control | dose: 200.0 mg/kg/injection, schedule: Q01DX009 (ip), vehicle: saline 89 % of control | [2] 88 % of control | dose: 400.0 mg/kg/injection, schedule: Q01DX009 (ip), vehicle: saline 94 % of control | [3] 92 % of control

C1O[C@@H]1[C@H]1CO1
inactive: dose: 9.5 mg/kg/injection, schedule: Q01DX001 (ip), vehicle: saline 100 % of control | dose: 19.0 mg/kg/injection, schedule: Q01DX001 (ip), vehicle: saline 97 % of control | dose: 38.0 mg/kg/injection, schedule: Q01DX001 (ip), vehicle: saline 101 % of control

N=C(N)c1ccc(-c2cc3cc(C(=N)N)ccc3s2)cc1
inactive: [1] 105 % of control

CC1(NO)CCCCC1
inactive: dose: 100.0 mg/kg/injection, schedule: Q01DX001 (ip), vehicle: Klucel (hydroxypropylcellulose) (HPC) 100 % of control | dose: 200.0 mg/kg/injection, schedule: Q01DX001 (ip), vehicle: Klucel (hydroxypropylcellulose) (HPC) 94 % of control

O=C1OC(=O)C(Cl)=C1Cl
inactive: dose: 25.0 mg/kg/injection, schedule: Q04DX002 (ip), vehicle: saline with Tween-80 97 % of control | dose: 50.0 mg/kg/injection, schedule: Q04DX002 (ip), vehicle: saline with Tween-80 93 % of control | dose: 100.0 mg/kg/injection, schedule: Q04DX002 (ip), vehicle: saline with Tween-80 104 % of control and 112 % of control

CCOc1ccc(Br)cc1/C=C1\N=C(c2ccccc2)OC1=O
inactive: [4] 93 % of control and 95 % of control | [5] 97 % of control and 98 % of control | [6] 93 % of control and 98 % of control | [7] 98 % of control and 89 % of control | [8] 96 % of control and 86 % of control | [9] 93 % of control and 98 % of control

COc1ccc(NC(=O)Nc2ccc(Cl)cc2)cc1
inactive: [4] 97 % of control | [5] 104 % of control | [6] 98 % of control | [7] 104 % of control | [8] 93 % of control | [9] 106 % of control

O=C(Cc1cnccn1)c1ccc(C(=O)Cc2cnccn2)cc1
inactive: dose: 100.0 mg/kg/injection, schedule: Q04DX003 (ip), vehicle: carboxymethylcellulose (CMC) 94 % of control | dose: 200.0 mg/kg/injection, schedule: Q04DX003 (ip), vehicle: carboxymethylcellulose (CMC) 103 % of control | dose: 400.0 mg/kg/injection, schedule: Q04DX003 (ip), vehicle: carboxymethylcellulose (CMC) 102 % of control

O=C(Nc1cccc([N+](=O)[O-])c1)Nc1ccccc1F
inactive: [4] 91 % of control | dose: 100.0 mg/kg/injection, schedule: Q04DX002 (ip), vehicle: Klucel (hydroxypropylcellulose) (HPC) 108 % of control | [6] 101 % of control | dose: 200.0 mg/kg/injection, schedule: Q04DX002 (ip), vehicle: Klucel (hydroxypropylcellulose) (HPC) 91 % of control | [8] 101 % of control | dose: 400.0 mg/kg/injection, schedule: Q04DX002 (ip), vehicle: Klucel (hydroxypropylcellulose) (HPC) 94 % of control

O=C(Nc1ccc(N=C(NC2CCCCC2)c2ccccc2)cc1)c1ccc(C(=O)Nc2ccc(N=C(NC3CCCCC3)c3ccccc3)cc2)cc1
inactive: dose: 15.0 mg/kg/injection, schedule: Q01DX Z (ip), vehicle: carboxymethylcellulose (CMC) 101 % of control | dose: 30.0 mg/kg/injection, schedule: Q01DX Z (ip), vehicle: carboxymethylcellulose (CMC) 97 % of control | dose: 60.0 mg/kg/injection, schedule: Q01DX Z (ip), vehicle: carboxymethylcellulose (CMC) 101 % of control | dose: 120.0 mg/kg/injection, schedule: Q01DX Z (ip), vehicle: carboxymethylcellulose (CMC) 97 % of control

Cc1c2cnccc2c(C)c2c1c1ccccc1n2CCNCc1ccccc1
inactive: dose: 50.0 mg/kg/injection, schedule: Q04DX003 (ip), vehicle: saline with Tween-80 87 % of control | [10] 94 % of control | [11] 103 % of control

CCCCCCCCCCCCCCCCOS(=O)(=O)O
inactive: dose: 37.5 mg/kg/injection, schedule: Q04DX003 (ip), vehicle: saline 103 % of control | dose: 75.0 mg/kg/injection, schedule: Q01DX001 (ip), vehicle: saline 106 % of control | dose: 75.0 mg/kg/injection, schedule: Q04DX003 (ip), vehicle: saline 97 % of control | dose: 150.0 mg/kg/injection, schedule: Q01DX001 (ip), vehicle: saline 90 % of control | dose: 150.0 mg/kg/injection, schedule: Q04DX003 (ip), vehicle: saline 96 % of control

COC(=O)C(CCSC)NC(=O)CNC(=O)CNC(=O)OCc1ccccc1 (stereo not drawn) (Cbz-Gly-Gly-[ξM]-OMe)
inactive: [10] 106 % of control | [11] 101 % of control | [12] 95 % of control

Nc1nc([Se]c2ccc([N+](=O)[O-])cc2)c2ncn(C3CC(O)C(CO)O3)c2n1 (stereo not given)
inactive: dose: 100.0 mg/kg/injection, schedule: Q01DX005 (ip), vehicle: saline 100 % of control | dose: 200.0 mg/kg/injection, schedule: Q01DX005 (ip), vehicle: saline 100 % of control

CCCCCCCCCCCCOC(=O)C[n+]1cccc(C(=O)NCc2ccccc2)c1
inactive: dose: 6.25 mg/kg/injection, schedule: Q01DX009 (ip), vehicle: saline with Tween-80 98 % of control | dose: 12.5 mg/kg/injection, schedule: Q01DX009 (ip), vehicle: saline with Tween-80 94 % of control | dose: 25.0 mg/kg/injection, schedule: Q01DX009 (ip), vehicle: saline with Tween-80 102 % of control

CCCCCCCC/C=C/CCCCCC1CCCC(C)N1 (stereo not given)
inactive: dose: 6.25 mg/kg/injection, schedule: Q04DX002 (ip), vehicle: saline 96 % of control | dose: 12.5 mg/kg/injection, schedule: Q04DX002 (ip), vehicle: saline 96 % of control | dose: 25.0 mg/kg/injection, schedule: Q04DX002 (ip), vehicle: saline 111 % of control | dose: 50.0 mg/kg/injection, schedule: Q04DX002 (ip), vehicle: saline 90 % of control

O=P(O)(Oc1ccccc1)c1ccccc1
inactive: [13] 107 % of control | [14] 105 % of control | [15] 100 % of control

NC(=O)C1OC(n2cnc3c(N)ncnc32)C(O)C1O (stereo not given)
inactive: dose: 0.09 mg/kg/injection, schedule: Q01DX009 (ip), vehicle: saline 101 % of control | dose: 0.19 mg/kg/injection, schedule: Q01DX005 (ip), vehicle: saline 114 % of control | dose: 0.19 mg/kg/injection, schedule: Q01DX009 (ip), vehicle: saline 100 % of control | dose: 0.39 mg/kg/injection, schedule: Q01DX009 (ip), vehicle: saline 107 % of control | dose: 0.78 mg/kg/injection, schedule: Q01DX009 (ip), vehicle: saline 103 % of control | dose: 1.56 mg/kg/injection, schedule: Q01DX009 (ip), vehicle: saline 114 % of control

CN1CCCN(C)C1
inactive: dose: 50.0 mg/kg/injection, schedule: Q01DX009 (ip), vehicle: saline with Tween-80 100 % of control | [16] 100 % of control | [10] 93 % of control | [11] 88 % of control

CC(CC(=O)O)NC(=O)OCc1ccccc1 (stereo not given)
inactive: dose: 100.0 mg/kg/injection, schedule: Q01DX001 (ip), vehicle: saline with Tween-80 101 % of control | [16] 100 % of control and 107 % of control | [10] 103 % of control | dose: 200.0 mg/kg/injection, schedule: Q01DX001 (ip), vehicle: saline with Tween-80 98 % of control | dose: 200.0 mg/kg/injection, schedule: Q01DX009 (ip), vehicle: saline with Tween-80 97 % of control and 90 % of control | [11] 94 % of control | dose: 400.0 mg/kg/injection, schedule: Q01DX001 (ip), vehicle: saline with Tween-80 95 % of control | dose: 400.0 mg/kg/injection, schedule: Q01DX009 (ip), vehicle: saline with Tween-80 100 % of control and 90 % of control | [12] 97 % of control

CC1=C/C(=N/NC(N)=O)CC(C)C1 (stereo not given)
inactive: [1] 100 % of control | [2] 98 % of control | [3] 97 % of control

Clc1ccc(CSc2ncc(Br)c(Nc3cc(Cl)ccc3Cl)n2)cc1
inactive: dose: 50.0 mg/kg/injection, schedule: Q01DX Z (ip), vehicle: methylcellulose (MC) 96 % of control | dose: 200.0 mg/kg/injection, schedule: Q01DX Z (ip), vehicle: methylcellulose (MC) 89 % of control

Cn1nnnc1CCN(N)CCN(N)CCc1nnnn1C
inactive: [13] 103 % of control | [14] 92 % of control | [15] 95 % of control

From PubChem BioAssay AID248 (DTP/NCI, 2004)
